Data: patent US8574563B2 (Bristol-Myers Squibb Company, priority 2006, dated 2013)

The molecules below were run on HCV 1b-377-neo replicon cells (assay: HCV replicon assay, HCV 1b-377-neo replicon cells (1b FRET)). Settings: Hepatitis C virus, HCV 1b-377-neo replicon cells; HCV 1b genotype; read-out: EC50 range against HCV 1b (Table 2, Range).
Format: cell-based, Hepatitis C virus genotype 1b
Method in brief: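 Compounds tested in HCV genotype 1b-377-neo replicon cells with a FRET read-out. Cells resistant to a reference NS5A inhibitor through a Y2065H NS5A mutation were run alongside wild-type cells.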
For `CC(=O)OC(C(=O)N1CCC[C@H]1c1ncc(-c2ccc(-c3ccc(-c4cnc([C@@H]5CCCN5C(=O)[C@@H](c5ccccc5)N5CCCCC5)[nH]4)cc3)cc2)[nH]1)c1ccccc1` (stereo in doubt) [Example 107-1, (1S)-2-oxo-1-phenyl-2-((2S)-2-(5-(4′-(2-((2S)-1-((2R)-2-phenyl-2-(1-piperidinyl)acetyl)-2-pyrrolidinyl)-1H-imidazol-5-yl)-4-biphenylyl)-1H-imidazol-2-yl)-1-pyrrolidinyl) ethyl acetate], the EC50 was 0.001 to 0.999 nM. `O=C(Nc1cccnc1)N[C@@H](C(=O)N1CCC[C@H]1c1ncc(-c2ccc(-c3ccc(-c4c[nH]c([C@@H]5CCCN5C(=O)[C@H]5CCCO5)n4)cc3)cc2)[nH]1)c1ccccc1` [Example 120-9, 1-((1R)-2-oxo-1-phenyl-2-((2S)-2-(5-(4′-(2-((2S)-1-((2R)-tetrahydro-2-furanylcarbonyl)-2-pyrrolidinyl)-1H-imidazol-4-yl)-4-biphenylyl)-1H-imidazol-2-yl)-1-pyrrolidinyl)ethyl)-3-(3-pyridinyl)urea] gave an EC50 of 0.001 to 0.999 nM. With `CC(C)OC(=O)N[C@H](C(=O)N1CCC[C@H]1c1nc(-c2ccc(-c3ccc(-c4c[nH]c([C@@H]5CCCN5C(=O)[C@@H](NC(=O)OC(C)C)C(C)C)n4)cc3)cc2)c[nH]1)C(C)C` [Example F26, isopropyl ((1S)-1-(((2S)-2-(4-(4′-(2-((2S)-1-((2S)-2-((isopropoxycarbonyl)amino)-3-methylbutanoyl)-2-pyrrolidinyl)-1H-imidazol-4-yl)-4-biphenylyl)-1H-imidazol-2-yl)-1-pyrrolidinyl)carbonyl)-2-methylpropyl)carbamate] the EC50 was 1 to 99 nM. In the case of `CCN(CC)[C@@H](C(=O)N1CCC[C@H]1c1ncc(-c2ccc(-c3ccc(-c4nc([C@@H]5CCCN5C(=O)[C@@H](c5ccccc5)N(CC)CC)[nH]c4C)cc3)cc2)[nH]1)c1ccccc1` [Example E5a, (1R)-2-((2S)-2-(4-(4′-(2-((2S)-1-((2R)-2-(diethylamino)-2-phenylacetyl)-2-pyrrolidinyl)-1H-imidazol-4-yl)-4-biphenylyl)-5-methyl-1H-imidazol-2-yl)-1-pyrrolidinyl)-N,N-diethyl-2-oxo-1-phenylethanamine], the EC50 is reported as 0.001 to 0.999 nM. `CCN(CC)[C@@H](C(=O)N1CCC[C@H]1c1ncc(-c2ccc(-c3ccc(-c4cnc([C@@H]5CCCN5C(=O)[C@H]5CCC[C@@H]5NC(=O)OC)[nH]4)cc3)cc2)[nH]1)c1ccccc1` [cj-116, methyl ((1S,2S)-2-(((2S)-2-(5-(4′-(2-((2S)-1-((2R)-2-(diethylamino)-2-phenylacetyl)-2-pyrrolidinyl)-1H-imidazol-5-yl)-4-biphenylyl)-1H-imidazol-2-yl)-1-pyrrolidinyl)carbonyl)cyclopentyl)carbamate] gave an EC50 of 0.001 to 0.999 nM. `COC(=O)N[C@H](C(=O)N1CCC[C@H]1c1nc(-c2ccc(-c3ccc(-c4c[nH]c([C@@H]5CCCN5C(=O)[C@@H](C)NC5CCOCC5)n4)cc3)cc2)c[nH]1)C(C)C` [Example F53, methyl ((1S)-2-methyl-1-(((2S)-2-(4-(4′-(2-((2S)-1-(N-(tetrahydro-2H-pyran-4-yl)-D-alanyl)-2-pyrrolidinyl)-1H-imidazol-4-yl)-4-biphenylyl)-1H-imidazol-2-yl)-1-pyrrolidinyl)carbonyl)propyl)carbamate] gave an EC50 of 0.001 to 0.999 nM. Work on `CCN(CC)[C@@H](C(=O)N1CCC[C@H]1c1ncc(-c2ccc(-c3ccc(-c4cnc([C@@H]5CCCN5C(=O)[C@@H](c5ccccc5)N5CCOCC5)[nH]4)cc3)cc2)[nH]1)c1ccccc1` [Example M48, (1R)-N,N-diethyl-2-((2S)-2-(5-(4′-(2-((2S)-1-((2R)-2-(4-morpholinyl)-2-phenylacetyl)-2-pyrrolidinyl)-1H-imidazol-5-yl)-4-biphenylyl)-1H-imidazol-2-yl)-1-pyrrolidinyl)-2-oxo-1-phenylethanamine] yielded an EC50 of 1 to 99 nM. `COC(=O)N[C@@H](C)C(=O)N1C[C@@H](F)C[C@H]1c1ncc(-c2ccc(-c3ccc(-c4cnc([C@@H]5C[C@H](F)CN5C(=O)[C@H](C)NC(=O)OC)[nH]4)cc3)cc2)[nH]1` [JG-13, methyl ((1S)-2-((2S,4S)-4-fluoro-2-(5-(4′-(2-((2S,4S)-4-fluoro-1-(N-(methoxycarbonyl)-L-alanyl)-2-pyrrolidinyl)-1H-imidazol-5-yl)-4-biphenylyl)-1H-imidazol-2-yl)-1-pyrrolidinyl)-1-methyl-2-oxoethyl)carbamate] gave an EC50 of 1 to 99 nM. `CC(C)[C@H](NC(=O)OCCF)C(=O)N1CCC[C@H]1c1ncc(-c2ccc(-c3ccc(-c4cnc([C@@H]5CCCN5C(=O)[C@@H](NC(=O)OCCF)C(C)C)[nH]4)cc3)cc2)[nH]1` [OL-3, 2-fluoroethyl ((1S)-1-(((2S)-2-(4-(4′-(2-((2S)-1-((2S)-2-(((2-fluoroethoxy)carbonyl)amino)-3-methylbutanoyl)-2-pyrrolidinyl)-1H-imidazol-4-yl)-4-biphenylyl)-1H-imidazol-2-yl)-1-pyrrolidinyl)carbonyl)-2-methylpropyl)carbamate] was tested, and the EC50 was 1 to 99 nM. `COC(=O)N[C@@H](C(=O)N1CCC[C@H]1c1ncc(-c2ccc(-c3ccc(-c4cnc([C@@H]5CCCN5C(=O)c5snnc5-c5ccccc5)[nH]4)cc3)cc2)[nH]1)c1ccccc1` [Example 84-10, methyl ((1R)-2-oxo-1-phenyl-2-((2S)-2-(5-(4′-(2-((2S)-1-((4-phenyl-1,2,3-thiadiazol-5-yl)carbonyl)-2-pyrrolidinyl)-1H-imidazol-5-yl)-4-biphenylyl)-1H-imidazol-2-yl)-1-pyrrolidinyl)ethyl)carbamate] gave an EC50 of 1 to 99 nM. `CN(C)C(C(=O)N1CCC[C@H]1c1nc(-c2ccc(-c3ccc(-c4cnc([C@@H]5CC6CCCCC6N5C(=O)[C@@H](c5ccccc5)N(C)C)[nH]4)cc3)cc2)c[nH]1)c1ccccc1` (relative stereo) [Example F7, rel-(1R)-2-((2S)-2-(4-(4′-(2-((2S)-1-((2R)-2-(dimethylamino)-2-phenylacetyl)octahydro-1H-indol-2-yl)-1H-imidazol-5-yl)-4-biphenylyl)-1H-imidazol-2-yl)-1-pyrrolidinyl)-N,N-dimethyl-2-oxo-1-phenylethanamine] showed an EC50 of 0.001 to 0.999 nM. `COC(=O)N[C@@H](C(=O)N1CCC[C@H]1c1ncc(-c2ccc(-c3ccc(-c4[nH]c([C@@H]5CCCN5C(=O)[C@H](NC(=O)OC)c5ccccc5)nc4C(=O)O)cc3)cc2)[nH]1)c1ccccc1` [Example J30] was tested, and the EC50 was 1 to 99 nM. `Cc1nc(CC(=O)N2CCC[C@H]2c2ncc(-c3ccc(-c4ccc(-c5cnc([C@@H]6CCCN6C(=O)[C@@H](c6ccccc6)N6CCCCC6)[nH]5)cc4)cc3)[nH]2)cs1` [Example 107-25, 1-((1R)-2-((2S)-2-(5-(4′-(2-((2S)-1-((2-methyl-1,3-thiazo1-4-yl)acetyl)-2-pyrrolidinyl)-1H-imidazol-5-yl)-4-biphenylyl)-1H-imidazol-2-yl)-1-pyrrolidinyl)-2-oxo-1-phenylethyl) piperidine] gave an EC50 of 0.001 to 0.999 nM. `COC(=O)N[C@@H](Cc1cncn1C)C(=O)N1CCC[C@H]1c1ncc(-c2ccc(-c3ccc(-c4cnc([C@@H]5CCCN5C(=O)[C@@H](NC(=O)OC)[C@@H](C)OC)[nH]4)cc3)cc2)[nH]1` [cj-47, methyl ((1S)-2-((2S)-2-(5-(4′-(2-((2S)-1-((2S,3R)-3-methoxy-2-((methoxycarbonyl)amino)butanoyl)-2-pyrrolidinyl)-1H-imidazol-5-yl)-4-biphenylyl)-1H-imidazol-2-yl)-1-pyrrolidinyl)-1-((1-methyl-1H-imidazol-5-yl)methyl)-2-oxoethyl)carbamate] showed an EC50 of 1 to 99 nM. Molecule `CN(C)[C@@H](C(=O)N1CCC[C@H]1c1ncc(-c2ccc(-c3ccc(-c4cnc([C@@H]5CCCN5C(=O)Cc5cnc[nH]5)[nH]4)cc3)cc2)[nH]1)c1ccccc1` [Example 94-50, (1R)-2-((2S)-2-(5-(4′-(2-((2S)-1-(1H-imidazol-5-ylacetyl)-2-pyrrolidinyl)-1H-imidazol-5-yl)-4-biphenylyl)-1H-imidazol-2-yl)-1-pyrrolidinyl)-N,N-dimethyl-2-oxo-1-phenylethanamine] has an EC50 of 0.001 to 0.999 nM. With `COC(=O)N[C@H](C(=O)N1CC(F)(F)C[C@H]1c1ncc(-c2ccc(-c3ccc(-c4cnc([C@@H]5CC(F)(F)CN5C(=O)[C@@H](NC(=O)OC)[C@@H](C)OC)[nH]4)cc3)cc2)[nH]1)[C@@H](C)OC` [OL-10, methyl ((1S,2R)-1-(((2S)-2-(4-(4′-(2-((2S)-4,4-difluoro-1-(N-(methoxycarbonyl)-O-methyl-L-threonyl)-2-pyrrolidinyl)-1H-imidazol-4-yl)-4-biphenylyl)-1H-imidazol-2-yl)-4,4-difluoro-1-pyrrolidinyl)carbonyl)-2-methoxypropyl)carbamate] the EC50 was 0.001 to 0.999 nM. `CNC(=O)N[C@@H](C(=O)N1C[C@H](O)C[C@H]1c1ncc(-c2ccc(-c3ccc(-c4cnc([C@@H]5C[C@@H](O)CN5C(=O)[C@H](NC(=O)NC)c5ccccc5)[nH]4)cc3)cc2)[nH]1)c1ccccc1` [Example 24-13, N,N″-(4,4′-biphenyldiylbis(1H-imidazole-5,2-diyl((2S,4R)-4-hydroxy-2,1-pyrrolidinediyl)((1R)-2-oxo-1-phenyl-2,1-ethanediyl)))bis(3-methylurea)] showed an EC50 of 100 to 999 nM. Work on `CN(C)[C@@H](C(=O)N1CCC[C@H]1c1ncc(-c2ccc(-c3ccc(-c4cnc([C@@H]5CCCN5C(=O)[C@@H](c5ccccc5F)N(C)C)[nH]4)cc3)cc2)[nH]1)c1ccccc1` [Example 107-31, (1R)-2-((2S)-2-(5-(4′-(2-((2S)-1-((2R)-2-(dimethylamino)-2-(2-fluorophenyl)acetyl)-2-pyrrolidinyl)-1H-imidazol-5-yl)-4-biphenylyl)-1H-imidazol-2-yl)-1-pyrrolidinyl)-N,N-dimethyl-2-oxo-1-phenylethanamine] yielded an EC50 of 0.001 to 0.999 nM. Work on `CN(C)[C@@H](C(=O)N1CCC[C@H]1c1ncc(-c2ccc(-c3ccc(-c4cnc([C@@H]5CCCN5C(=O)[C@H]5CCN(Cc6ccccc6)C5)[nH]4)cc3)cc2)[nH]1)c1ccccc1` [Example 94-26, (1R)-2-((2S)-2-(5-(4′-(2-((2S)-1-(((3S)-1-benzyl-3-pyrrolidinyl)carbonyl)-2-pyrrolidinyl)-1H-imidazol-5-yl)-4-biphenylyl)-1H-imidazol-2-yl)-1-pyrrolidinyl)-N,N-dimethyl-2-oxo-1-phenylethanamine] yielded an EC50 of 0.001 to 0.999 nM.
